This note sets out measurements from EP0162695A1, “6-Oxygenated-1,3,,4,5-Tetrahydrobenz(cd)indol-4-amines” (SMITHKLINE BEECHAM CORPORATION, priority 1984, dated 1985).

The experiment deals with 5-HTl receptor. Kind of experiment: antagonism of the effect of serotonin in an in vitro dog basilar artery preparation. In kind it is biochemical. From the text: Also, selective 5-HTl receptor antagonist activity of the compounds of formula (I) may be shown by the ability to antagonize the effect of serotonin in an in vitro dog basilar artery preparation, Peroutka et al, Brain Research 259:327-330 (1983).

Turning to `COc1ccc2[nH]cc3c2c1CC(N)C3` (stereo not shown) [example 1, 6-methoxy-l,3,4,5-tetrahydrobenz[cd]indole-4-amine hemioxalate], the Kb – broadly, the equilibrium dissociation constant of an antagonist, usually derived from a functional assay – was determined as 463 nM.
